Tested on: Nrf2-ARE-mediated transcription
Assay: ARE Reporter - HepG2 cell line luciferase assay
Assay type: cell-based, human
Details: ARE reporter HepG2 cells, TZ 1 μM, ELA 3 μM, 18 h exposure, significant = fold induction over DMSO above 2 and p<0.05
Procedure: The ARE Reporter—Hep G2 cell line is designed to monitor Nrf2 antioxidant response pathway. The cell contains a firefly luciferase gene under the control of ARE (antioxidant response element) stably integrated into Hep G2 cells.
ARE reporter—HepG2 cells (BPS Bioscience, Inc., San Diego, cat #60513) were cultured following manufacturer's instructions. After thawing (BPS thaw medium 1K, cat #60187), cells were cultured in growth-medium (BPS growth medium 1K, cat #79533) and subsequently plated at a density of 40 000 cells per well in a 96-well microplate in 45 μL of assay medium (BPS thaw medium). TZ, ELA and DL-Sulforaphane (Sigma cat #S4441) were dissolved in DMSO and diluted into assay medium. 5 μl of dilution were added on cells to reach a final concentration of 1 μM for TZ and 3 μM for ELA. DL-Sulforaphane was used as a positive control at the dose of 3 μM. After 18 h exposure, luciferase activity was determined. 50 μL of One-Step Luciferase assay system (BPS cat #60690) were added per well and after ~15 min of rocking at room temperature, luminescence was measured using a luminometer.
Fold induction over DMSO above 2 and with a p-value <0.05 was considered as significant.

O=C(Nc1ncc([N+](=O)[O-])s1)c1ccccc1O [TZ]
activation of Nrf2-antioxidant pathway compared to the untreated condition: induces a significant activation
